Tested on: Plasmodium falciparum
Experiment: GSK_TCMDC: Inhibition of Plasmodium falciparum 3D7 in whole erythrocytes, using parasite LDH activity as an index of growth.
Assay type: functional, organism-based
Conditions: Plasmodium falciparum, 3D7

Structure (SMILES) | XC50 [nM]
Cc1[nH]c(C)c(-c2ccc(Oc3cccc(Cl)c3)cc2)c(=O)c1Br | 34.2
O=C(NCc1ccc(C(=O)NCc2cccc3ccccc23)cc1)c1ccc(O)c(-c2ccc(Cl)c(Cl)c2)c1 | 814
Nc1nc(N)c2c(ccc3c2ccn3CCCCO)n1 | 117
CC1CN(Cc2ccccc2)CCN1c1ccc(NC(=O)c2ccc(F)cc2)cc1 (stereo not drawn) | 1010
Cc1cc(O)c2c3c1C(=O)C=C1C3c3c(c(O)cc(O)c3C(=O)C1(C)C)C2=O (stereo not drawn) | 1680
O=C(NCCCCCN1CCCN(C(=O)Nc2ccc(F)c(C(F)(F)F)c2)CC1)C1CC1c1ccc(Cl)c(Cl)c1 (stereo not drawn) | 1030
CN1CCN(CC(=O)Nc2cccc(-c3ccc(-c4nc5cc(F)ccc5[nH]4)s3)c2)CC1 | 679
N=C(N)NCC=C(c1ccccc1)c1ccccc1 | 989
O=C(Nc1ccccc1)N(Cc1ccc(-c2ccc(CNCc3ccc4c(c3)OCO4)cc2)cc1)C1CCN(Cc2ccccc2)CC1 | 570
CN(C)CCCOc1ccc(CNCc2cccc(Oc3ccc(Cl)cc3)c2)cc1 | 824
Fc1ccc(-c2csc3ncnc(Cl)c23)cc1 | 331
Cc1ccc2c(=O)c3cc(C)ccc3[nH]c2c1 | 424
O=C(/C=C/c1ccc(Cl)c(Cl)c1)NCCCCCN1CCCC(CNC(=O)/C=C/c2ccccc2)C1 (stereo not drawn) | 791
COc1ccc(O)c(CN2CCN(c3cc(C)ccc3C)CC2)c1 | 1010
O=C(NCc1ccco1)c1ccc(CN2CCN(C(c3ccccc3)c3ccccc3)CC2)cc1 | 789
CC(=O)Oc1c(Cl)c(C)nc(C)c1-c1ccc(Oc2ccc(OC(F)(F)F)cc2)cc1 | 96.2
NCC(=O)NC12CC3CC(CC(C3)C1)C2 | 1200
NC(=O)Nc1ccc2c(Nc3ccc(OCc4ccccc4)cc3)ncnc2c1 | 1260
CC1(C)NC(=N)NC(=N)N1OCC=Cc1ccccc1 | 4.24
CCNc1cc(C(=O)N[C@@H](Cc2ccccc2)[C@H](O)CNCCC(C)(C)C)c(F)c(N2CCCCS2(=O)=O)c1 | 797
O=C(/C=C/c1ccc(Cl)c(Cl)c1)NCCCCCN1CCC(C(=O)Nc2ccc(F)c(Cl)c2)CC1 | 647
Cc1cccc2nc(-c3cccc(-c4cccc(NC(=O)Nc5ccc(Cl)cc5)c4)c3)[nH]c12 | 236
COc1cc(C(=O)NCCCN2CCN(c3cccc(Cl)c3)CC2)ccc1-c1cc2cc(Cl)c(Cl)cc2[nH]1 | 468
Cc1nc(-c2ccncc2)sc1C(=O)Nc1ccc(Cl)cc1C(=O)Nc1ccc(Cl)cc1 | 759
COc1ccc(-n2ccnc2)cc1CNC1CCN(CC2Cn3c(=O)ccc4ccc(F)c2c43)CC1 (stereo not drawn) | 927

Structure (SMILES) | XC50 [nM]
CCn1ccc2c(N3CCCCS3(=O)=O)cc(C(=O)N[C@@H](Cc3ccccc3)[C@H](O)CNC3CCCCC3)cc21 | 122
COc1ccc(N2CCN(CCCCNC(=O)c3ccc(NC(=O)c4cc(Cl)cc(Cl)c4)cc3)CC2)c(OC)c1 | 299
Cc1cccc2nc(-c3ccc(-c4ccc(CNCCN5CCNCC5)cc4)s3)[nH]c12 | 1150
O=C(Nc1c(F)cccc1F)c1cccc(-c2nn3ccccc3c2-c2ccnc(Nc3cccc(-c4cnco4)c3)n2)c1 | 361
CC(=O)C1(c2ccccc2)CCN(CCC2(c3ccc(Cl)c(Cl)c3)CN(C(=O)C3CCCC3)CCO2)CC1 (stereo not drawn) | 798
c1ccc(-c2nnc(-c3ccccn3)nc2NC2CCCCC2)cc1 | 910
COc1cccc(C(=O)N2CCOC(CCN3CCC(c4ccccc4)CC3)(c3ccc(Cl)c(Cl)c3)C2)c1 (stereo not drawn) | 505
CC(CN(C)C)C(=O)Nc1cccc(-c2ccc(-c3nc4cc(C(F)(F)F)ccc4[nH]3)cc2)c1 (stereo not drawn) | 248
COc1cccc(NC(=O)Nc2ccc(-c3oc(C(=O)NCC(c4ccccc4)N(C)C)cc3-c3ccncc3)cc2)c1 (stereo not drawn) | 1830
Cc1cc(C(F)(F)F)n2nc(C(=O)N(Cc3cncn3Cc3cccc(F)c3)CC3CC3)cc2n1 | 742
CCC(NC(=O)c1ccccc1NC(=O)c1ccc(C)cc1)C(=O)OC (stereo not drawn) | 762
OCC1CCN(Cc2cccc(-c3ccc(-c4nc5cc(C(F)(F)F)ccc5[nH]4)s3)c2)CC1 | 588
Cc1cccc2nc(-c3cccc(-c4cccc(NC(=O)NCc5cccc(F)c5)c4)c3)[nH]c12 | 453
CCCNCc1ccc(-c2ccc(CN(C(=O)c3nn(-c4ccccc4)nc3C)C(C)CN(C)C)cc2)nc1 (stereo not drawn) | 923
O=C(Nc1cccnc1)c1cc(-c2cccnc2)nc2ccc(Cl)cc12 | 1060
O=S(=O)(NCCN1CCCC1)c1ccc(-c2ccc(CNC3Cc4ccccc4C3)cc2)cc1F | 999
CCCCNc1ccc(C(=O)NC2CCN(C[C@H](O)c3ccnc4ccc(OC)cc34)CC2)cc1 | 442
COc1cc2nc(NCC3CCCCC3)nc(NCc3ccccc3)c2cc1OC | 142
COc1cc2c(c(OC)c1OC)C[C@H]1c3c(cc4c(c3-2)OCO4)CCN1C | 969
CN1CCCc2ccc(NC(=O)c3cc(-c4ccc(Cl)cc4)cs3)cc2C1 | 793
Cc1nc(-c2nc(NCc3ccccn3)ncc2-c2ccsc2)sc1C | 559
COc1ccc2c(NN=Cc3ccc(Cl)cc3)ccnc2c1 | 865
N#Cc1ccc2c(c1)CCN(CCC1CCC(NC(=O)c3cc4ccc(Cl)cc4[nH]3)CC1)C2 (stereo not drawn) | 700
CCCNCCc1ccc(NS(=O)(=O)c2cccc(-c3ccc(Cl)cc3)c2)cc1 | 975
Cc1ccc(CNC(=O)[C@H](CCCN)Nc2cc(C)nc(Nc3ccccc3)n2)cc1 | 1290

Structure (SMILES) | XC50 [nM]
O=C(Nc1ccc(Oc2cccnc2)cc1)C1CCN(Cc2cc(Cl)ccc2O)CC1 | 1350
CN(C)CCNC(=O)c1cc2c(-c3ccc(Cl)cc3)nn(C)c2s1 | 665
Cc1cc(N)c2cc(NC(=O)c3cccc(C(=O)Nc4ccc5nc(C)cc(N)c5c4)c3)ccc2n1 | 256
Cc1cc(=NN=Cc2ccc(F)cc2)c2ccc(C(F)(F)F)cc2[nH]1 | 816
COc1cc(NCCCCCNc2cc(Cl)nc3ccccc23)nc2ccccc12 | 783
COc1ccccc1C1CC(c2ccccc2)=NN1C(=O)c1ccccc1 (stereo not drawn) | 296
CC(Oc1ccc(Cl)cc1)C(=O)Nc1cc(C(F)(F)F)ccc1-n1cncn1 (stereo not drawn) | 151
Cc1ccc(S(=O)(=O)n2nccc2-c2c(-c3ccc(Cl)cc3)noc2C)cc1 | 809
CCCC(C)N(Cc1ccc(C(C)(C)C)cc1)C(=O)c1cccc(C#N)c1 (stereo not drawn) | 1050
CC(C)CCn1c(Sc2ccc(C#N)c([N+](=O)[O-])c2)nnc1-c1ccc(N(C)C)cc1 | 786
Cc1[nH]c(C)c(-c2ccc(CCc3cccc(C(F)(F)F)c3)nc2)c(=O)c1Cl | 101
COc1ccc(C(=O)CCC(=O)N(CCC2CCCN2C)Cc2ccc(-c3ccc(CNCCc4ccc(S(C)(=O)=O)cc4)cn3)cc2)cc1F (stereo not drawn) | 874
COc1cc2c(cc1C(F)(F)F)N(C(=O)Nc1cc(F)cc(-c3cncnc3)c1)CC2 | 500
O=[N+]([O-])c1ccc(-c2ccc(C=NNc3nc(Nc4ccccc4)nc(Nc4ccccc4)n3)o2)cc1 | 1430
COc1cccc(NC(=O)c2ccc(NCCCN3CC(C)CC(C)C3)c([N+](=O)[O-])c2)c1 (stereo not drawn) | 721
Cc1cc(N(C)C)nc(Nc2ccc(NC(=O)COc3ccccc3)cc2)n1 | 1760
COCCOc1nc(N)nc2ncc(Cc3cc(OC)ccc3OC)c(C)c12 | 426
COc1ccc(OC)c(Cc2c(C)nc3nc(N)nc(N)c3c2C)c1 | 864
CC(C)C[C@H](Nc1ccnc(NCC2CCCCC2)n1)C(=O)Nc1ccccc1 | 1430
CC(C)CN1CCCN(Cc2cccc(NC(=O)c3ccc(-c4ccccc4)cc3)c2)CC1 | 883
COc1cc2nc(N(C)C)nc(Nc3ccc4c(cnn4Cc4ccccc4)c3)c2cc1OC | 44
CC(=O)c1cccc(NC(=O)c2ccc(Cl)c(S(=O)(=O)N3CCc4ccccc43)c2)c1 | 1640
COc1ccc(-c2cccc(NC(=O)c3ccc(Cl)cc3)c2)cc1CN1CCNCC1 | 840
CCCC(C)c1ccc(N2C(N)=NC(N)=NC2(C)C)cc1 (stereo not drawn) | 6.27
O=c1cc(NCCCNCc2cccc(OC(F)(F)F)c2)[nH]c2ccccc12 | 854

Structure (SMILES) | XC50 [nM]
COc1ccc(CN(C)CCOc2ccc(NC(=O)c3cccc4c(=O)c5cc(SC)ccc5[nH]c34)cc2)cc1OC | 877
CCc1cn(C)c2c(N3CCCC3=O)cc(C(=O)N[C@@H](Cc3ccccc3)[C@H](O)CNC(C)(C)c3cccc(OC)c3)cc12 | 36
O=C(Nc1cccc(-c2cccc(-c3nc4cc(F)ccc4[nH]3)c2)c1)Nc1ccc2c(c1)OCO2 | 137
CCOC(=O)c1ccc(-n2c(C)cc(C=C3SC(=Nc4ccccc4)N(C4CCCC4)C3=O)c2C)cc1 | 1170
CCOc1ccc2nc3cc(N)ccc3c(N)c2c1 | 527
Cc1ccc(-c2cncc(-c3cc(NC4CCN(Cc5ccccc5)CC4)nc(-c4ccccc4)n3)c2)cc1 | 720
O=C(Nc1ccc(C(=O)OCC(c2ccccc2)c2ccccc2)cc1)N[C@@H](Cc1ccc(O)cc1)C(=O)NC1CCN(Cc2ccc(O)cc2)C1 (stereo partly drawn) | 782
CN1CCN(c2ccnc3ccc(NC(=O)Nc4ccc5c(c4)CCC5=O)cc23)CC1 | 330
COc1cc2c(cc1OCCN1CCC(N3CCCCC3)CC1)N(C(=O)/C=C/c1ccccc1OC(F)(F)F)CC2 | 590
Cc1cc(NC(=O)[C@H](CC(C)C)Nc2ccc(C#N)c3ccccc23)ccc1F | 777
COc1ccc(NC(=O)c2ccc(Br)c(C)c2)cc1N1CCN(CCCc2c[nH]c3ccccc23)CC1 | 382
CN1CCC(NCc2cccc(-c3cccc(-c4nc5cc(C(F)(F)F)ccc5[nH]4)c3)c2)CC1 | 142
NCC1CCCN1Cc1ccc(-c2ccc(-c3nc4ccccc4[nH]3)s2)cc1 (stereo not drawn) | 934
COc1ccccc1NC(=O)CSc1nc2cccnc2n1-c1ccccc1OC | 362
CCCCOC(C(=O)OCC1CCCN1C)(c1ccccc1)c1ccccc1 (stereo not drawn) | 786
Oc1cc(Nc2ccnc3cc(-c4ccc(CN5CCCCC5)o4)c(Cl)cc23)c(Cl)cc1F | 1260
CCOC(=O)c1ccc(NC(=O)N[C@@H](Cc2ccccc2)C(=O)NC2CCN(Cc3ccc(O)cc3)C2)cc1 (stereo partly drawn) | 628
Cc1ccc(C)c2sc(N(CCCn3ccnc3)C(=O)C=Cc3cccs3)nc12 | 1060
c1ccc(-c2cccnn2)cc1 | 910
Fc1ccc2[nH]c(-c3cccc(-c4ccc(CNCc5ccccc5)cc4)c3)nc2c1 | 266
O=C(/C=C/c1ccc(Cl)c(Cl)c1)N1CCC(NCc2ccc3[nH]ccc3c2)CC1 | 1020
Cc1cc(=O)[nH]c2cc(Nc3ccnc(Nc4cccc(C(N)=O)c4)n3)ccc12 | 1520
O=S(=O)(c1ccccc1Cl)N1CCCCC(c2ccc(C(F)(F)F)cc2)=N1 | 942

Source: ChEMBL document CHEMBL1157539, “Thousands of chemical starting points for antimalarial lead identification” (Nature, 2010)
